The record followed here is patent EP4011367A1, “COMPOUNDS FOR USE IN THE TREATMENT OF COVID-19” (priority 2020, dated 2022).

Structures can show the parent of a compound that is named as a salt. Where two headings read alike, the source gives them in different places.

This test deals with T1, SARS-CoV-2 3CL-Pro (Severe acute respiratory syndrome coronavirus 2, UniProt P0DTD1).
T1 construct: SARS-CoV-2 main protease (3CL-Pro), also termed M-Pro
The experiment in a line: biochemical. The settings on record: for inhibition at 20 µM: read-out: 3CL-Pro Inhibition [%] Primary Screen (20 µM).

Where [1] appears, read: dose response, 8 concentrations, absence of DTT, 60 min pre-incubation at 37 °C, 15 µM substrate, 60 nM enzyme, read-out: IC50.

Broadly, the inhibition is the relative decrease from the control value, in per cent. As usually defined, the IC50 is the concentration that inhibits the measured activity by half. Take `O=[N+]([O-])c1ccc(Sc2cccc[n+]2[O-])c2nonc12` [compound 50, 4-Nitro-1-[(1-oxidopyridin-2-yl)sulfanyl]-2,1,3-benzoxadiazole]: the inhibition at 20 µM turned out to be 102%. Further, for the setting “read-out: IC50”, the IC50 is 100 nM.

As for `CCN1CCN(C(c2ccc(C(F)(F)F)cc2)c2ccc3cccnc3c2O)CC1` (stereo not drawn) [compound 52, 7-[(4-Ethylpiperazin-1-yl)[4-(trifluoromethyl)phenyl]methyl]q uinolin-8-ol], the inhibition at 20 µM was determined as 100%. Further, the IC50 (read-out: IC50) worked out at 150 nM.

With `Cc1ccc(-n2sc(=O)n(Cc3ccc(F)cc3)c2=O)cc1` [compound 53, 4-(4-Fluorobenzyl)-2-(4-methylphenyl)-1,2,4-thiadiazolidine-3,5-dione], the IC50 (read-out: IC50) was 150 nM.

Consider `CCCCCCNC(=O)n1cc(F)c(=O)[nH]c1=O` [compound 55, 5-Fluoro-N-hexyl-2,4-dioxo-1,2,3,4-tetrahydropyrimidine-1-carboxamide], for which the inhibition at 20 µM turned out to be 101%.

With `O=C(CCl)c1ccccc1` [compound 56, 2-chloro-1-phenylethanone], the inhibition at 20 µM was 99.9%. Moreover, where the note is “read-out: IC50”, the half-inhibitory concentration (IC50) was determined as 190 nM.

For the molecule `CCOC(=O)Cc1ccc(-c2ccccc2)cc1` [compound 57, [1,1'-Biphenyl]-4-acetic acid ethyl ester], the inhibition at 20 µM stood at 96.2%. Also, the 50% inhibitory concentration (IC50) (read-out: IC50) was determined as 200 nM.

`O=C1C=CC(=O)C2=C1C1c3ccccc3C2c2ccccc21` [compound 61, Pentacyclo[6.6.6.0(2,7).0(9,14).0(15,20)]icosa-2(7),4,9,11,13,15,17,19-octaene-3,6-dione]: the inhibition at 20 µM came out at 99.2%. The 50% inhibitory concentration (IC50) (read-out: IC50) worked out at 240 nM.

As to `O=C(O)c1ccccc1-c1c2cc(Br)c(=O)cc-2oc2[c]([Hg][OH])c(O)c(Br)cc12` [compound 62, [2,7-dibromo-9-(2-carboxyphenyl)-3-hydroxy-6-oxoxanthen-4-yl]mercury;hydrate], the IC50 was 240 nM.

For the molecule `CCOc1cc(C(Nc2cc(C)ccn2)c2ccc3cccnc3c2O)ccc1OC` (stereo not drawn) [compound 63, 7-[(3-Ethoxy-4-methoxyphenyl)[(4-methylpyridin-2-yl)amino]methyl]quinolin-8-ol], the IC50 amounted to 270 nM and the inhibition at 20 µM came out at 98.9%.

For `O=[N+]([O-])c1cnc(Sc2nnc(O)n2-c2ccc3c(c2)OCCO3)s1` [compound 64, 4-(2,3-Dihydro-1,4-benzodioxin-6-yl)-5-(5-nitrothiazol-2-ylsulfanyl)-4H-1,2,4-triazol-3-ol], the inhibition at 20 µM worked out at 96.4%. Moreover, the concentration for half-maximal inhibition (IC50) (read-out: IC50) is 300 nM.

As for `Oc1c(I)cc(I)c(O)c1I` [compound 65, 2,4,6-Triiodoresorcine], the inhibition at 20 µM worked out at 99.7%. For the same molecule, the half-maximal inhibitory concentration (IC50) (read-out: IC50) came to 330 nM.

`N#CSc1cc(SC#N)c(N)nc1N` [compound 66, 2,6-Diaminopyridine-3,5-diyl bis(thiocyanate)]: for the setting “read-out: IC50”, the half-inhibitory concentration (IC50) was determined as 410 nM.

Regarding `O=[N+]([O-])C(Br)(CO)CO` [compound 67, 2-bromo-2-nitropropane-1,3-diol], the inhibition at 20 µM was 99.9%. Also, the IC50 (read-out: IC50) stood at 420 nM.

Consider `Oc1cc(CNC(=S)C=Cc2cc(O)c(O)c(Br)c2)cc(O)c1O` [compound 68, 3-(3-Bromo-4,5-dihydroxyphenyl)-N-(3,4,5-trihydroxybenzyl)-2-propenethioamide], for which the inhibition at 20 µM amounted to 79.4%. Moreover, the IC50 under setting [1] was found to be 480 nM.

Regarding `Oc1cc2c(cc1C(c1ccc(C(F)(F)F)cc1)N1CCOCC1)OCO2` (stereo not drawn) [compound 70, 6-[morpholin-4-yl-[4-(trifluoromethyl)phenyl]methyl]-1,3-benzodioxol-5-ol], the inhibition at 20 µM stood at 81.4%. For the same molecule, the IC50 (read-out: IC50) amounted to 540 nM.

In the case of `CC(C)N(CCC(=O)c1ccc2ccccc2c1)Cc1ccccc1` [compound 71, 3-[benzyl(propan-2-yl)amino]-1-naphthalen-2-ylpropan-1-one], the inhibition at 20 µM came to 75.7%. Further, where the note is “read-out: IC50”, the concentration for half-maximal inhibition (IC50) is 580 nM.

For `COc1cccc2c1C(=O)c1c(O)c3c(c(O)c1C2=O)C[C@@](O)(C(CO)=NNC(=O)CCCCCN1C(=O)C=CC1=O)C[C@@H]3O[C@H]1C[C@H](N)[C@H](O)[C@H](C)O1` [compound 72, N'-[1-[4(S)-(3-Amino-2,3,6-trideoxy-alpha-L-lyxo-hexopyranosyloxy)-2(S),5,12-trihydroxy-7-methoxy-6,11-dioxo-1,2,3,4,6,11-hexahydronaphthacen-2-yl]-2-hydroxyethylidene]-6-(2,5-dioxo-2,5-dihydro-1H-pyrrol-1-yl)hexanohydrazide hydrochloride], the IC50 is 580 nM and the inhibition at 20 µM was determined as 101%.

For the molecule `CC[C@H](CO)Nc1nc(NCc2ccc(-c3ccccn3)cc2)c2ncn(C(C)C)c2n1` [compound 73, (2R)-2-[[9-propan-2-yl-6-[(4-pyridin-2-ylphenyl)methylamino]purin-2-yl]amino]butan-1-ol], the inhibition at 20 µM came to 99.5%. The IC50 (read-out: IC50) was 840 nM.

In turn, `C=CC1=C(C)C2=Cc3c(C=C)c(C)c4[n]3[Fe]([Cl])[n]3c(c(C)c(CCC(=O)O)c3=CC3=NC(=C4)C(C)=C3CCC(=O)O)=CC1=N2` [compound 74, - (SP-5-13)-Chloro[3,8,13,17-tetramethyl-7,12-divinyl-21H,23H-porphine-2,18-dipropanoato(4-)-kappa N21,kappaN22,kappaN23,kappaN24]dihydrogenoferrate(2-)] came in with an IC50 of 880 nM.

Regarding `CN(C)C(=S)SC(=S)N(C)C` [compound 75, dimethylcarbamothioyl N,N-dimethylcarbamodithioate], the IC50 (read-out: IC50) is 940 nM.

Consider `CN=c1nc(-c2ccccc2)n(-c2ccccc2)s1` [compound 76, N-(2,3-Diphenyl-2,5-dihydro-1,2,4-thiadiazol-5-ylidene)-N-methylamine], for which the inhibition at 20 µM is 99.8%. Also, the IC50 under setting [1] was 980 nM.

On to `COc1cc(C(=S)N2CCOCC2)ccc1O` [compound 79, (4-hydroxy-3-methoxyphenyl)-orpholin-4-ylmethanethione], for which the inhibition at 20 µM is 100%. Besides, the concentration for half-maximal inhibition (IC50) (read-out: IC50) is 1320 nM.

In the case of `CNC(=O)ON(C(C)=O)C(=O)NC` [compound 80, N-[(Methylamino)carbonyl]-N-[[(methylamino)carbonyl]oxy]ace tamide], the inhibition at 20 µM was found to be 96.4%. The IC50 (read-out: IC50) stood at 1330 nM.

In the case of `O=C(O)c1cc(O)c2c(c1)[C@H]([C@H]1c3cc(C(=O)O)cc(O)c3C(=O)c3c(O[C@@H]4O[C@H](CO)[C@@H](O)[C@H](O)[C@H]4O)cccc31)c1cccc(O[C@@H]3O[C@H](CO)[C@@H](O)[C@H](O)[C@H]3O)c1C2=O` [compound 81, (9R)-9-[(9R)-2-carboxy-4-hydroxy-10-oxo-5-[(2S,3R,4S,5S,6R)-3,4,5-trihydroxy-6-(hydroxymethyl)oxan-2-yl]oxy-9H-anthracen-9-yl]-4-hydroxy-10-oxo-5-[(2S,3R,4S,5S,6R)-3,4,5-trihydroxy-6-(hydroxymethyl)oxan-2-yl]oxy-9H-anthracene-2-carboxylic acid], the inhibition at 20 µM turned out to be 103%.

As for `O=C(O)C(S)C(S)C(=O)O` (stereo not drawn) [compound 82, 2,3-bis(sulfanyl)butanedioic acid], the half-maximal inhibitory concentration (IC50) is 1720 nM and the inhibition at 20 µM was 98.9%.

On to `Cc1ccccc1N(C)C(=O)c1ccc([S+]([O-])c2nccs2)c([N+](=O)[O-])c1` (stereo not drawn) [compound 84, N-methyl-N-(2-methylphenyl)-3-nitro-4-(1,3-thiazol-2-ylsulfinyl)benzamide], for which the inhibition at 20 µM was 96.7%. Also, the IC50 (read-out: IC50) was 1870 nM.

For the molecule `CN1CC[C@@]2(C)c3cc(O)ccc3N(C)[C@@H]12` [compound 85, (3aS,8bR)-3,4,8b-trimethyl-2,3a-dihydro-1H-pyrrolo[2,3-b] indol-7-ol], the inhibition at 20 µM came out at 91.5%. Moreover, under “read-out: IC50”, the concentration for half-maximal inhibition (IC50) was found to be 1990 nM.

As for `O=C(O)CCCCCCCCCCCCCCc1ccc(I)cc1` [compound 88, 15-(4-iodophenyl)pentadecanoic acid], the inhibition at 20 µM came out at 95%. For the same molecule, the IC50 (read-out: IC50) is 2250 nM.

Consider `COc1cccc(C(=O)CCN[C@@H](C)[C@H](O)c2ccccc2)c1` [compound 89, 3-[2(R)-Hydroxy-1(S)-methyl-2-phenylethylamino]-1-(3-methoxyphenyl)propan-1-one hydrochloride], for which the inhibition at 20 µM was determined as 90.8%. For the setting “read-out: IC50”, the 50% inhibitory concentration (IC50) is 2350 nM.

On to `C[N+]1(C)CCC(OC(=O)C(c2ccccc2)c2ccccc2)CC1` [compound 90, (1,1-dimethylpiperidin-1-ium-4-yl) 2,2-diphenylacetate;iodide], for which the concentration for half-maximal inhibition (IC50) is 2360 nM and the inhibition at 20 µM worked out at 97.8%.

Take `C=C1C(=O)[C@@]23C(CC[C@@H]1[C@H]2O)[C@@]12CO[C@]3(O)[C@@H](O)[C@@H]1C(C)(C)CC[C@@H]2O` (stereo partly drawn) [compound 91, (1S,5S,8R,9S,10S,11R,15S,18R)-9,10,15,18-tetrahydroxy-12,12-dimethyl-6-methylidene-17-oxapentacyclo[7.6.2.15,8.01,11.0 2,8]octadecan-7-one]: the inhibition at 20 µM was 98.2%.
